The values that follow come from patent US9193736B2, “PDE 10a inhibitors for the treatment of type II diabetes” (Janssen Pharmaceutica, NV, priority 2013, dated 2015).

The target in assay [1] is Human recombinant PDE10A2 (Homo sapiens (Human), UniProt Q9Y233). Briefly: In vitro hPDE10a: human recombinant PDE10A2 scintillation proximity assay, IC50. Format: biochemical. To be noted: human recombinant PDE10A2, SPA, 60 nM cAMP; read-out: hPDE10a2 IC50. The method, then: Cells were harvested and the phosphodiesterase protein was purified by metal chelate chromatography on Ni-sepharose 6FF. The affinity of the compounds of Formula (I) for phophodiesterases (PDE) was measured by a scintillation proximity assay (SPA). PDE Yttrium Silicate SPA beads allow PDE activity to be measured by direct binding of the primary phosphate groups of non-cyclic AMP or GMP to the beads via a complex iron chelation mechanism. The amount of bound tritiated product ([^3H]-AMP) is measured by liquid scintillation counting. The compounds were dissolved and diluted in 100% DMSO in polystyrene plates to a concentration of 100-fold the final concentration in the assay. […] After incubation, the reaction was stopped with 20 μL of stop solution, consisting of PDE SPA beads (17.8 mg beads/mL in 18 mM zinc sulphate). […] To measure the low control, no enzyme was added to the reaction mixture. Data were calculated as the percentage of inhibition of total activity measured in the absence of test compound (% control). […] For compounds tested more than once, the data points were aggregated.
On the technique in general: SPA uses beads or plates that emit light when radiolabelled molecules are held near them.

For assay [2], the target named is Rat recombinant PDE10a (rPDE10a) (Rattus norvegicus (Rat), UniProt Q9QYJ6). Briefly: In vitro assay PDE10a: rat recombinant PDE10a SPA with 3H-cAMP substrate, IC50. It counts as biochemical. The following applies: 60 nM cAMP, read-out: rPDE10a2 IC50. The method, then: In Vitro Assay PDE10a Rat recombinant PDE10a (rPDE10a) was expressed in Sf9 cells using a recombinant rPDE10a baculovirus construct. Cells were harvested after 48 h of infection and the rPDE10a protein was purified by metal chelate chromatography on Ni-sepharose 6FF. Tested compounds were dissolved and diluted in 100% DMSO to a concentration 100 fold of the final concentration in the assay. […] The reaction was incubated for 60 min at rt. After incubation, the reaction was stopped with 20 μL of 17.8 mg/mL PDE SPA beads. […] For blank values the enzyme was omitted from the reaction and replaced by incubation buffer.

By IC50 is commonly meant the concentration that inhibits the measured activity by half.

Where a name gives a salt, the structure may show the parent alone. Residues, ends and D or L forms follow the SMILES beside them. *: point of attachment. X1 = O=C(c1ccc(-c2c(C#Cc3ccc4ccccc4n3)nc3c(N4CCOCC4)ccnn23)cc1)*

Human recombinant PDE10A2, sequence (Q9Y233 267-1055): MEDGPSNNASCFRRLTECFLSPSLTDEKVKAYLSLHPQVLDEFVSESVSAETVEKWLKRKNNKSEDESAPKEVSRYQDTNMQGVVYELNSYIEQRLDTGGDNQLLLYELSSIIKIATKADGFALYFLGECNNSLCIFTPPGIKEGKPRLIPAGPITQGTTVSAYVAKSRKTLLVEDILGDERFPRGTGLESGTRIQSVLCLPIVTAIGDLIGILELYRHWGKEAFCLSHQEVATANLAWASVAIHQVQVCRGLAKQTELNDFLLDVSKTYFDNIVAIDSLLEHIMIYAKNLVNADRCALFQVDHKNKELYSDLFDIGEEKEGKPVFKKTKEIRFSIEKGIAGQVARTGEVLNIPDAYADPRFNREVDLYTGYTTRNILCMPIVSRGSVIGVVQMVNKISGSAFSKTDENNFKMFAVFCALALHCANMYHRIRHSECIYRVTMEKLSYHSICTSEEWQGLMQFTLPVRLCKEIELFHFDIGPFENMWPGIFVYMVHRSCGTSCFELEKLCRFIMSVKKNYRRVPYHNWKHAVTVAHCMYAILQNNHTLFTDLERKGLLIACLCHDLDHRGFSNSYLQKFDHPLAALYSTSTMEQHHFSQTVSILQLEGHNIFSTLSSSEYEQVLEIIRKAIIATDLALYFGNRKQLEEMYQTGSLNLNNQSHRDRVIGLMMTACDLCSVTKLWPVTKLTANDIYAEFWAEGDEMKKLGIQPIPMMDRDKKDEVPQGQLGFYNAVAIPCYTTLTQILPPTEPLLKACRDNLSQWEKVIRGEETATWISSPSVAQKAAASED
Rat recombinant PDE10a (rPDE10a), sequence (Q9QYJ6 whole entry): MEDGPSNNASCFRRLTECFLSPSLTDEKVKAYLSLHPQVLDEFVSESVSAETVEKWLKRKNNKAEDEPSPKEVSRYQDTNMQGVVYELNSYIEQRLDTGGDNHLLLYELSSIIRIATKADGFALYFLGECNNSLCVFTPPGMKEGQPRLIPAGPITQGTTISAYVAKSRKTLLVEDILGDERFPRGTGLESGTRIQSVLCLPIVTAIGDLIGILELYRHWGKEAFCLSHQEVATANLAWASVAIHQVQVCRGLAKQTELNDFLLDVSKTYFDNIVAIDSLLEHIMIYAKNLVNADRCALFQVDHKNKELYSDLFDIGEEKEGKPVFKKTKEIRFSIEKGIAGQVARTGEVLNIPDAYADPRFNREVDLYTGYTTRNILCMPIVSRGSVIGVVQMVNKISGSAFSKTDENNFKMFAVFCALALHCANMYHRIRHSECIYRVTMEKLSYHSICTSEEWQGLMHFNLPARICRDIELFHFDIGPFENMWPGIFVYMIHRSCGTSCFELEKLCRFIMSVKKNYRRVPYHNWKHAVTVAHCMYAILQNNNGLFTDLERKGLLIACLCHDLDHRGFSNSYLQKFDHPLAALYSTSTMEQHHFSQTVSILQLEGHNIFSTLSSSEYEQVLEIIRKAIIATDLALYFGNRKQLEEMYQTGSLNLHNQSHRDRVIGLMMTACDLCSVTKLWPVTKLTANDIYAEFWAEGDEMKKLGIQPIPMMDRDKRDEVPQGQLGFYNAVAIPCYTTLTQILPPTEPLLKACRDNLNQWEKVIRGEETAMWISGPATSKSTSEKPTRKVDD

As for `CC(C)[C@H](Nc1ccc(-c2c(/C=C/c3ccc4ccccc4n3)nc3c(N4CCOCC4)ccnn23)cc1)C(=O)O` [Cpd 99, (S,E)-3-Methyl-2-(4-(8-morpholino-2-(2-(quinolin-2-yl)vinyl)imidazo[1,2-b]pyridazin-3-yl)phenylamino)butanoic acid trifluoroacetic acid salt], the half-inhibitory concentration (IC50) is 10 nM in assay [1] and 12 nM in assay [2]. The matching figures for `c1ccc2nc(NCc3nc4c(N5CCOCC5)ccnn4c3-c3ccc(N4CCNCC4)nc3)ccc2c1` [Cpd 4, N-((8-Morpholino-3-(6-(piperazin-1-yl)pyridin-3-yl)imidazo[1,2-b]pyridazin-2-yl)methyl)quinolin-2-amine trifluoroacetic acid salt]: 155 nM and 200 nM. The matching figures for `c1ccc2ncc(OCCc3nc4c(N5CCOCC5)ccnn4c3-c3ccc(N4CCNCC4)nc3)cc2c1` [Cpd 14, 4-(3-(6-(Piperazin-1-yl)pyridin-3-yl)-2-(2-(quinolin-3-yloxy)ethyl)imidazo[1,2-b]pyridazin-8-yl)morpholine trifluoroacetic acid salt]: 955 nM and 776 nM.

In the case of `O=C(O)CCC(=O)N1CCN(c2c(/C=C/c3ccc4ccccc4n3)nc3c(N4CCOCC4)ccnn23)CC1` [compound 155, (E)-4-(4-(8-Morpholino-2-(2-(quinolin-2-yl)vinyl)imidazo[1,2-b]pyridazin-3-yl)piperazin-1-yl)-4-oxobutanoic acid], the 50% inhibitory concentration (IC50) in assay [1] is 5 nM; in assay [2], 3 nM.

For `O=C(O)c1cccc(-c2c(C#Cc3ccc4ccccc4n3)nc3c(N4CCOCC4)ccnn23)c1` [Cpd 88, 3-(8-Morpholino-2-(quinolin-2-ylethynyl)imidazo[1,2-b]pyridazin-3-yl)benzoic acid trifluoroacetic acid salt], the IC50 in assay [1] and in assay [2] was < 1 nM throughout. Regarding `O=c1[nH]c(-c2ccc(-c3c(/C=C/c4ccc5ccccc5n4)nc4c(N5CCOCC5)ccnn34)cn2)no1` [Cpd 34, (E)-3-(5-(8-Morpholino-2-(2-(quinolin-2-yl)vinyl)imidazo[1,2-b]pyridazin-3-yl)pyridin-2-yl)-1,2,4-oxadiazol-5(4H)-one], the results for the half-inhibitory concentration (IC50) in assay [1] and in assay [2] were 3 nM and 2 nM, respectively. Turning to `CC(C)C[C@H](NC(=O)[C@H](C)N)C(=O)N[C@@H](C)C(=O)N[C@@H](CCCCNC(=O)c1ccc(-c2c(C#Cc3ccc4ccccc4n3)nc3c(N4CCOCC4)ccnn23)cc1)C(N)=O` [Cpd 178, N—((S)-6-amino-5-((S)-2-((S)-2-((S)-2-aminopropanamido)-4-methylpentanamido)propanamido)-6-oxohexyl)-4-(8-morpholino-2-(quinolin-2-ylethynyl)imidazo[1,2-b]pyridazin-3-yl)benzamide] (H-ALAK(X1)-NH2), the concentration for half-maximal inhibition (IC50) in assay [1] is 11 nM.

With `O=C(O)c1ccc(-c2c(/C=C/c3ccc4c(n3)CCCC4)nc3c(N4CCOCC4)ccnn23)cn1` [Cpd 107, (E)-5-(8-morpholino-2-(2-(5,6,7,8-tetrahydroquinolin-2-yl)vinyl)imidazo[1,2-b]pyridazin-3-yl)picolinic acid trifluoroacetic acid salt], the 50% inhibitory concentration (IC50) in assay [1] is 12 nM.

Regarding `O=c1ncn(-c2ccc(-c3c(/C=C/c4ccc5ccccc5n4)nc4c(N5CCOCC5)ccnn34)cc2F)[nH]1` [Cpd 158, (E)-1-(2-Fluoro-4-(8-morpholino-2-(2-(quinolin-2-yl)vinyl)imidazo[1,2-b]pyridazin-3-yl)phenyl)-1,2-dihydro-1,2,4-triazol-3-one], the IC50 in assay [1] turned out to be 5 nM.

In the case of `C[C@H](N)C(=O)N[C@@H](CCCCNC(=O)c1ccc(-c2c(C#Cc3ccc4ccccc4n3)nc3c(N4CCOCC4)ccnn23)cc1)C(N)=O` [Cpd 179, N—((S)-6-amino-5-((S)-2-aminopropanamido)-6-oxohexyl)-4-(8-morpholino-2-(quinolin-2-ylethynyl)imidazo[1,2-b]pyridazin-3-yl)benzamide], the half-maximal inhibitory concentration (IC50) in assay [1] came to 5 nM. Same read-out and setting: the figure for `NCC(=O)N[C@@H](CCCCNC(=O)c1ccc(-c2c(C#Cc3ccc4ccccc4n3)nc3c(N4CCOCC4)ccnn23)cc1)C(N)=O` [Cpd 181, (S)—N-(6-amino-5-(2-aminoacetamido)-6-oxohexyl)-4-(8-morpholino-2-(quinolin-2-ylethynyl)imidazo[1,2-b]pyridazin-3-yl)benzamide] is 6 nM; for `c1ccc2nc(C3CC3c3cn4nccc(N5CCOCC5)c4n3)ccc2c1` (stereo not drawn) [Cpd 161, 2-[2-(8-Morpholin-4-ylimidazo[1,2-b]pyridazin-2-yl)cyclopropyl]quinoline] it is 4 nM. Still for that read-out and setting: the figure for `CC(=O)c1ccc(-c2c(C#Cc3ccc4ccccc4n3)nc3c(N4CCOCC4)ccnn23)cc1` [Cpd 159, 1-(4-(8-Morpholino-2-(quinolin-2-ylethynyl)imidazo[1,2-b]pyridazin-3-yl)phenyl)ethanone] is 9 nM; for `O=C(O)CC1(c2ccc(-c3c([C@H]4C[C@H](c5ccc6ccccc6n5)C4)nc4c(N5CCOCC5)ccnn34)cc2)COC1` [Cpd 174, 2-(3-(4-(8-Morpholino-2-((1R,3R)-3-(quinolin-2-yl)cyclobutyl)imidazo[1,2-b]pyridazin-3-yl)phenyl)oxetan-3-yl)acetic acid] it is 1 nM; for `O=c1[nH]nc(-c2ccc(-c3c(/C=C/c4ccc5ccccc5n4)nc4c(N5CCOCC5)ccnn34)cc2F)[nH]1` [Cpd 162, (E)-5-(2-Fluoro-4-(8-morpholino-2-(2-(quinolin-2-yl)vinyl)imidazo[1,2-b]pyridazin-3-yl)phenyl)-2H-1,2,4-triazol-3(4H)-one] it is 9 nM. For `O=C(O)[C@H]1C[C@@H]1c1ccc(-c2c([C@H]3C[C@H](c4ccc5ccccc5n4)C3)nc3c(N4CCOCC4)ccnn23)cc1` [Cpd 170, (1R,2S)-2-(4-(8-Morpholino-2-((1R,3S)-3-(quinolin-2-yl)cyclobutyl)imidazo[1,2-b]pyridazin-3-yl)phenyl)cyclopropanecarboxylic acid], in assay [1], the IC50 came to 1 nM. Consider `CC(C)(CC(=O)O)c1ccc(-c2c([C@H]3C[C@H](c4ccc5ccccc5n4)C3)nc3c(N4CCOCC4)ccnn23)cc1` [Cpd 172, 3-Methyl-3-{4-[8-morpholin-4-yl-2-(trans-3-quinolin-2-ylcyclobutyl)imidazo[1,2-b]pyridazin-3-yl]phenyl}butanoic acid], for which the half-maximal inhibitory concentration (IC50) in assay [1] was found to be 1 nM. Still for that read-out and setting: the figure for `O=C(O)C1CCN(c2ccc(-c3c([C@H]4C[C@@H](c5ccc6ccccc6n5)C4)nc4c(N5CCOCC5)ccnn34)cc2)CC1` [compound 166, 1-(4-(8-Morpholino-2-((1s,3s)-3-(quinolin-2-yl)cyclobutyl)imidazo[1,2-b]pyridazin-3-yl)phenyl)piperidine-4-carboxylic acid] is 93 nM; for `O=C(O)c1ccc(-c2c([C@@H]3C[C@@H]3c3ccc4ccccc4n3)nc3c(N4CCOCC4)cc(Cl)nn23)cc1F` [Cpd 165, 4-(6-Chloro-8-morpholino-2-((1R,2S)-2-(quinolin-2-yl)cyclopropyl)imidazo[1,2-b]pyridazin-3-yl)-2-fluorobenzoic acid trifluoroacetic acid salt] it is 12 nM; for `O=C(O)c1ccc(-c2c([C@H]3C[C@H](c4ccc5ccccc5n4)C3)nc3c(N4CCOCC4)cc(Cl)nn23)cc1` [compound 160, 4-(6-Chloro-8-morpholino-2-((1r,3r)-3-(quinolin-2-yl)cyclobutyl)imidazo[1,2-b]pyridazin-3-yl)benzoic acid trifluoroacetic acid salt] it is 1 nM. On the same count and under the same terms, the figure for `NC(=O)[C@@H](N)CCCCNC(=O)c1ccc(-c2c(C#Cc3ccc4ccccc4n3)nc3c(N4CCOCC4)ccnn23)cc1` [Cpd 180, (S)—N-(5,6-diamino-6-oxohexyl)-4-(8-morpholino-2-(quinolin-2-ylethynyl)imidazo[1,2-b]pyridazin-3-yl)benzamide] is 5 nM; for `CC(C)(C(=O)O)c1ccc(-c2c([C@H]3C[C@H](c4ccc5ccccc5n4)C3)nc3c(N4CCOCC4)ccnn23)cc1` [Cpd 171, 2-Methyl-2-(4-(8-morpholino-2-((1R,3R)-3-(quinolin-2-yl)cyclobutyl)imidazo[1,2-b]pyridazin-3-yl)phenyl)propanoic acid] it is 2 nM. Same read-out and setting: the figure for `O=C(O)c1ccc(-c2c([C@H]3C[C@@H](c4ccc5ccccc5n4)C3)nc3c(N4CCOCC4)ccnn23)cc1` [compound 167, 4-(8-Morpholino-2-((1s,3s)-3-(quinolin-2-yl)cyclobutyl)imidazo[1,2-b]pyridazin-3-yl)benzoic acid trifluoroacetic acid salt] is 13 nM; for `Cn1nc(-c2ccc(-c3c(/C=C/c4ccc5ccccc5n4)nc4c(N5CCOCC5)ccnn34)cc2F)[nH]c1=O` [Cpd 163, (E)-5-(2-Fluoro-4-(8-morpholino-2-(2-(quinolin-2-yl)vinyl)imidazo[1,2-b]pyridazin-3-yl)phenyl)-2-methyl-2H-1,2,4-triazol-3(4H)-one] it is 12 nM.
